In test [1] the test system is male SDT rats (spontaneously type II diabetes model), complete skin-excised wounds. The test can be described thus: Complete skin-excised model, wound healing. Type of test: in vivo. The settings on record: SDT rat, 10 mg/kg subcutaneously every day. An excerpt: Using male SDT rats of 28-30 weeks age, which were a spontaneously type II diabetes model, promoting effect on repair and regeneration in wound healing after complete skin excision were examined according to a partially modified method of Breitbout AS et al. (Ann Plast Surg 1999, 43: 632). That is, an animal was shaved at its back under anesthesia with ether, and skin in 2×2 cm size was excised together with panniculus carnosus in same size to make two complete skin-excised wounds per animal.
Healings of the wounds were observed on the 1st day, 4th day, 7th day, 12h day, 15th day, 21st day and 28th day from the operation. An area of the wounds was obtained as the product of the average vertical length and the average horizontal length which were measured along with a direction of the longest part in the wound.
A test compound was dissolved in sterile physiological saline together with gum arabic. Concentrations of the test compound and gum arabic were adjusted to 30 mg/mL and 5% respectively. The preparation was subcutaneously injected at the dose of 10 mg/kg every day. The administration was started on 6 days before the operation and continued to 28 days after the operation.

The test system of test [2] is male SD rats, obstruction-released kidney (glomerular lesions and tubulointerstitial lesions). In words: Obstruction release model after complete obstruction of unilateral ureter for 14 days (Example 2-1). Type of test: in vivo. Also on record: key to Tubulointerstitial lesions: level of lesions (quality): summed lesion score: + = 1, ++ = 2, +++ = 3 points. The settings on record: rat. From the text: That is, the rat was laparotomized under anesthesia with ether and left ureter was ligated with 7-0 Nylon at the height of the margin of lower pole of kidney to close the abdomen. On the 14th day after obstruction, the obstruction was released and urinary passage was reconstructed using a cuff. Thus, after 14 days, the part of ligated obstructed ureter was resected, a polyethylene tube of 25 gages (manufactured by Nippon Sherwood) was used as a cuff and inserted into and retained at the lumen from the cut end of the lower normal ureter, then the cuff was also retained in the expanded upper ureter and each of them was ligated and fixed by 7-0 Nylon to reconstruct the urinary passage. At the same time, the right kidney at the opposite side was excised. After the release of the obstruction, body weight was measured, blood was drawn on the 2nd day, 5th day and 7th day from the release to measure serum creatinine, then the rat was killed under anesthesia and the left obstruction-released kidney was excised.
With regard to the excised kidney, there were carried out measurements of weight of the kidney, creatinine concentration mg/dl in plasma as an indicator of kidney function and pathological test for the kidney, and also leukocyte cells which infiltrate the obstruction-released kidney were immunopathologically studied with cell surface markers for ED1 macrophages, CD11b (ED8) positive macrophages and CD5 positive lymphocytes. A number of positive cells was expressed as a number of cells per glomerulus from measured numbers of positive cells in five glomeruli, and for a number in tubulointerstitial tissue, it was expressed by the total number of cells existing in five fields of 200×magnification. For macrophages, a number of CD11b positive cells existing in glomerulus was considered as a number of CD11b^+CD2^+ macrophages and a case of existing not less than one positive cell per glomerulus was considered as positive (+). In the tubulointerstitial tissue, a number of […] 60 CD11b positive cells was considered as positive (+), or a case of CD11b^−CD2^+ macrophages dominantly increasing. Scoring of evaluation of tubulointerstitial lesions was as follows: + gets 1-point as a light lesion; ++ gets 2-point as a moderate lesion; and +++ gets3-point as a severe lesion. For glomerular lesions, when a proportion of lesioned glomeruli was decreased to not more than 40%, and for tubulointerstitial lesions, when a score of the lesions was not more than 4, it was considered as improved.
For glomerular lesions, by counting glomeruli causing thickening of Bowman's capsule wall and glomerular hyalinosis, a proportion of glomeruli having lesions was calculated. For tubulointerstitial lesions, by qualifying hyperplasia of tubular basement membrane and interstitial fibrosis, levels of the lesions were represented.
An in vivo biological test was carried out for the γ-lactone derivative according to the present invention using this model. Bulk powder of a test compound was dissolved in sterile physiological saline together with gum arabic, and concentrations of the test compound and gum arabic were adjusted to 30 mg/mL and 5% respectively. The preparation was administered orally or subcutaneously injected at the dose of 30 mg/kg or 3 mg/kg every day. The administration was conducted for the total 21 days of the obstructed period for 14 days and after release of the obstruction for 7 days.
For test groups, a group administered single compound group, a group administered both compound group and a control group administered solution of gum arabic were set up and compared for renal functions and morphological evaluations, as well as numbers of ED1, CD5, CD11b positive cells by means of immunopathology.

[3] abbreviates: 30 mg/kg subcutaneously every day for 21 days, one value per animal, 30 mg/kg.

Structures are written as SMILES. Values joined by “and” are separate entries in the source; they are usually repeats but may differ in a detail not shown here. Equal values may be shown once. “Also recorded” adds a separate entry of the source. Marks after values point to notes of the source that are not given here.

`C[C@@H](OC(=O)[C@]1(Oc2ccc(F)cc2)CCC(=O)O1)c1ccc2ccccc2c1` [compound (I-1), (R)-1-naphthalen-2-ylethyl (S)-2-(4-fluorophenoxy)-5-oxotetrahydrofuran-2-carboxylate]: in test [1] (1st day after complete skin excision), the “Excised wound area (cm^2)” value is given as 3.38 cm^2. Also, the “Excised wound area (cm^2)” value in test [1] (4th day after complete skin excision) is reported as 2.10 cm^2. Further, in test [1] (7th day after complete skin excision), the “Excised wound area (cm^2)” value is listed as 1.45* cm^2. For the same compound, the “Excised wound area (cm^2)” value in test [1] (12th day after complete skin excision) is reported as 0.56* cm^2. The “Excised wound area (cm^2)” value in test [1] (15th day after complete skin excision) was 0.51 cm^2. Further, the “Excised wound area (cm^2)” value in test [1] (21st day after complete skin excision) is listed as 0.40 cm^2. Moreover, the “Crust formation/number of wound” value in test [1] (21st day after the operation) is 0/8. Besides, the “crust formation on the surface of repaired wounds (in words)” value in test [1] (28th day) is “no crust formation occurred”. In addition, in test [1] (28th day after complete skin excision), the “Excised wound area (cm^2)” value is recorded as 0.18* cm^2. Besides, the “Crust formation/number of wound” value in test [1] (28th day after the operation) is given as 0/8. Also, the “promoting effect on wound healing (in words)” value in test [1] (versus the control group, 10 mg/kg) is “more promoting effect on wound healing at 7th day to 12th day after the operation; also recorded: in 28th day of healing period, it showed promoting effect on wound healing; also recorded: promoting effect on healing of dermis and epidermis including panniculus carnosus”. Further, in test [2] (30 mg/kg subcutaneously), the “cases with increased regeneration-promoting CD11b^+CD2^+ macrophages to glomerular lesions” value is reported as “two of four cases”, the “cases with increased regeneration-promoting CD11b^−CD2^+ macrophages to tubulointerstitial lesions” value is reported as “three of four cases”, the “difference in serum creatinine” value is on record as “no difference” and the “pathological improvement of glomerular lesions (cases)” value is on record as “no glomerular lesion was improved”. Also, the “pathological improvement of tubulointerstitial lesions (cases)” value in test [2] (30 mg/kg subcutaneously) was “three of four cases”. In test [2] (setting [3]), the “Coincidence of two regeneration macrophages being positive” value is reported as “Not coincident; also recorded: Coincident”; the “Glomerular lesions: proportion of lesioned glomeruli (%)” value is 29% and 39% and 57% and 67%; the “Number of regeneration CD11b^+CD2^+ macrophages to glomerular lesions: number of positive cells per glomerulus” value was 0.5 cells per glomerulus and 2.0 cells per glomerulus and 0.0 cells per glomerulus and 1.3 cells per glomerulus; the “Number of regeneration CD11b^−CD2^+ macrophages to tubulointerstitial lesions: number of positive cells (CD11b) in five fields of 200× magnification” value is 24 cells in five fields of 200× m and 140 cells in five fields of 200× m and 59 cells in five fields of 200× m and 41 cells in five fields of 200× m. In addition, in test [2] (setting [3]), the “Regeneration CD11b^+CD2^+ macrophages to glomerular lesions, Determination: increase = +” value was “+ (a case of existing not less than one positive cell per glomerulus was considered as positive (+))”; the “Regeneration CD11b^−CD2^+ macrophages to tubulointerstitial lesions, Determination: increase +” value is recorded as “+ (a number of not more than 60 CD11b positive cells was considered as positive (+))”; the Serum creatinine is 3.0 mg/dL and 2.7 mg/dL and 2.8 mg/dL and 2.2 mg/dL; the “Tubulointerstitial lesions: level of lesions (quality)” value is 7.0 and 4.0 and 3.0 (2×).

Source of the values: patent US20060014709A1, “Drug or cosmetic” (priority 2002, published 2006).
